Experiments:
TYK2-JH2 domain = biological target: T1, TYK2-JH2 domain (Homo sapiens, UniProt P29597); assay: Binding activity test for JH2 domain of TYK2 (Tb-antibody/tracer FRET)
T1 construct: IC50 on JH2 domain activity (nM)
Experimental: Binding Activity Test for […] Domain of JAK1 and TYK2 The compounds are prepared in DMSO for 200× top dose, then serial dilute it with 27-fold for 3 more points. Add 8 μL/well in echo source plate, echo will add 75 nL/well with 3-fold serial dilution for 11 points in assay plate. 75 nL DMSO for high control and low control. […] For low control, add 5 μL/well assay buffer. And then spin down at 1000 rpm and centrifuge for 30 seconds. After enzyme system prepared, add 5 μL of Tb-antibody solution into each wells of assay plate. Spin down at 1000 rpm and centrifuge for 30 sec. After Tb-antibody added, also add 5 μL of tracer into the assay plate. Spin down at 1000 rpm and centrifuge for 30 sec. Incubate for 60 mins at 25° C. firstly and then continue to incubate the plate at 4° C. overnight. Read by envision in FRET mode. The Luminescence value was recorded by a multi-label reader Envision (PerkinElmer).

[1] = biological target: T2, Ba/F3-FL-TYK2-P760L cells (Homo sapiens, UniProt P29597, P760L, cells depend on it); assay: Anti-proliferative assay, Ba/F3-FL-TYK2-P760L cells (Cell-Titer Glo); type: cell-based; conditions: 72 h, read-out: BaF3-FL-T2P760L IC50
T2 construct: BaF3-FL-T2P760L (nM)
In short: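 Compound exposure ran 72 h at 37 °C in 5% CO2 across nine 3-fold concentrations from a 20 μM top dose, added 24 h after seeding 2000 cells/well.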

T1 sequence (P29597 589-875 limits assumed): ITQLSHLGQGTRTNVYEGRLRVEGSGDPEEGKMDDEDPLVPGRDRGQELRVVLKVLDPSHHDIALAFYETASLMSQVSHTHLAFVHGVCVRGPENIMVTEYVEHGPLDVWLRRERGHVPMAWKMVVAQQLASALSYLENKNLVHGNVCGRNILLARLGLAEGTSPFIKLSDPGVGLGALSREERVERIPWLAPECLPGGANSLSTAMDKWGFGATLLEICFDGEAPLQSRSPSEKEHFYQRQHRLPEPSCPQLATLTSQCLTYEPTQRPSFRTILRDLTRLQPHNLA
T2 sequence (P29597 whole entry P760L): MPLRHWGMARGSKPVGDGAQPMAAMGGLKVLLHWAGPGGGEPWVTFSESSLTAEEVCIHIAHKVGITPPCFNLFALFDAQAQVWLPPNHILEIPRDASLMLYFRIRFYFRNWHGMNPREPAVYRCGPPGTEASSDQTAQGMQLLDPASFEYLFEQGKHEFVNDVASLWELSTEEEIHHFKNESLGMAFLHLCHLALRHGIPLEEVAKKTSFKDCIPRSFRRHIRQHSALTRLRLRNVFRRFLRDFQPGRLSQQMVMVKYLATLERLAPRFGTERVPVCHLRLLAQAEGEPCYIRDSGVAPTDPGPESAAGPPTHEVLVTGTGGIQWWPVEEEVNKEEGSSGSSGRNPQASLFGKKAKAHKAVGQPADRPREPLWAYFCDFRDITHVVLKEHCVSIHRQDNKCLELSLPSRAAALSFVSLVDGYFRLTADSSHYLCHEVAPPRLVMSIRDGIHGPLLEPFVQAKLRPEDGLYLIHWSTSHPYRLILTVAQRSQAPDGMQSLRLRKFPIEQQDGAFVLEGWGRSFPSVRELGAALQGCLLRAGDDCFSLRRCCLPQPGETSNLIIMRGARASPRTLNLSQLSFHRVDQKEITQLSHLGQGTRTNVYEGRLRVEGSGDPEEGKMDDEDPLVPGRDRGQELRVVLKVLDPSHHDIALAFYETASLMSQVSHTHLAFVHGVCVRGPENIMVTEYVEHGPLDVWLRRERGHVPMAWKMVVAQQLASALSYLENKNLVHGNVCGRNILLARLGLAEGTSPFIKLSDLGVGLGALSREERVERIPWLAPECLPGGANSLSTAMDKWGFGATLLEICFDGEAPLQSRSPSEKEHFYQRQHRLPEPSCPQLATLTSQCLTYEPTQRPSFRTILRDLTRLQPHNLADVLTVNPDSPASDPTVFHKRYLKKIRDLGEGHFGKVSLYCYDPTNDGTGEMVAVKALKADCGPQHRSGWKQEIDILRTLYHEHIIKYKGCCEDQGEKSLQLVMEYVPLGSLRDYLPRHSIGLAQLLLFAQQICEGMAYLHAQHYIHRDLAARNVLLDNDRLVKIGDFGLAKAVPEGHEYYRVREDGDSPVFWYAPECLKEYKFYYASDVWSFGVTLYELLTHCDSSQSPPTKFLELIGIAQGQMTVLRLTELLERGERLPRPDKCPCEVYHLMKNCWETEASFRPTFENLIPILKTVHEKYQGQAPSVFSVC

Compound	IC50 (TYK2-JH2 domain)	GI50 [1]
[2H]C([2H])([2H])NC(=O)c1cnc(NC(=O)C2CC2)cc1Nc1cn(C)c2ccn(C(C)C(F)(F)F)c(=O)c12 (single isomer, unassigned) [Example 190A, (R*)-6-(Cyclopropanecarboxamido)-N-(methyl-d3)-4-((1-methyl-4-oxo-5-(1,1,1-trifluoropropan-2-yl)-4,5-dihydro-1H-pyrrolo[3,2-c]pyridin-3-yl)amino)nicotinamide]	0.622 nM	113 nM
[2H]C([2H])([2H])NC(=O)c1cnc(NC(=O)C2CC2)cc1Nc1ccn2cnc(CC)c2c1OC [Example 57, 6-(Cyclopropanecarboxamido)-4-((1-ethyl-8-methoxyimidazo[1,5-a]pyridin-7-yl)amino)-N-(methyl-d3)nicotinamide]	5.21 nM	> 5000 nM
COC(=O)c1cnc(NC(=O)C2CC2)cc1Nc1cn(C)c2ccn(C)c(=O)c12 [Example 116, Methyl 6-(cyclopropanecarboxamido)-4-((1,5-dimethyl-4-oxo-4,5-dihydro-1H-pyrrolo[3,2-c]pyridin-3-yl)amino)nicotinate]	3.35 nM	102 nM
[2H]C([2H])([2H])NC(=O)c1cnc(NC(=O)C2CC2)nc1Nc1ccc2cnn(CC)c2c1OC [Example 135, 2-(Cyclopropanecarboxamido)-4-((1-ethyl-7-methoxy-1H-indazol-6-yl)amino)-N-(methyl-d3)pyrimidine-5-carboxamide]	1.46 nM	128 nM
[2H]C([2H])([2H])NC(=O)c1nnc(NC(=O)C2CC2)cc1Nc1ccc2cnn(CC)c2c1OC [Example 144, 6-(Cyclopropanecarboxamido)-4-((1-ethyl-7-methoxy-1H-indazol-6-yl)amino)-N-(methyl-d3)pyridazine-3-carboxamide]	1.29 nM	344 nM
CCn1ncc2ccc(Nc3cc(NC(=O)C4CC4)ncc3C(=O)OC)c(OC(F)(F)F)c21 [Example 148, Methyl 6-(cyclopropanecarboxamido)-4-((1-ethyl-7-(trifluoromethoxy)-1H-indazol-6-yl)amino)nicotinate]	> 298 nM	242 nM
CCc1nn(C)c2ccc(Nc3cc(NC(=O)C4CC4)ncc3C(=O)OC)c(OC)c12 [Example 149, Methyl 6-(cyclopropanecarboxamido)-4-((3-ethyl-4-methoxy-1-methyl-1H-indazol-5-yl)amino)nicotinate]	62.8 nM	732 nM
[2H]C([2H])([2H])NC(=O)c1cnc(NC(=O)C2CC2)cc1Nc1ccc2c(c(CC)nn2C)c1OC [Example 150, 6-(Cyclopropanecarboxamido)-4-((3-ethyl-4-methoxy-1-methyl-1H-indazol-5-yl)amino)-N-(methyl-d3)nicotinamide]	1.87 nM	231 nM
[2H]C([2H])([2H])NC(=O)c1cnc(NC(=O)C2CC2)cc1Nc1ccc2nc(C)n(CC)c2c1OC [Example 168, 6-(Cyclopropanecarboxamido)-4-((1-ethyl-7-methoxy-2-methyl-1H-benzo[d]imidazol-6-yl)amino)-N-(methyl-d3)nicotinamide]	2.15 nM	728 nM
[2H]C([2H])([2H])NC(=O)c1cnc(NC(=O)C2CC2)cc1Nc1csc2c(Cl)cn(CC)c(=O)c12 [Example 173, 4-((7-Chloro-5-ethyl-4-oxo-4,5-dihydrothieno[3,2-c]pyridin-3-yl)amino)-6-(cyclopropanecarboxamido)-N-(methyl-d3)nicotinamide]	0.817 nM	86.5 nM
[2H]C([2H])([2H])NC(=O)c1cnc(NC(=O)C2CC2)cc1Nc1cn(C)c2ncn(CC(F)F)c(=O)c12 [Example 194, 6-(Cyclopropanecarboxamido)-4-((3-(2,2-difluoroethyl)-7-methyl-4-oxo-4,7-dihydro-3H-pyrrolo[2,3-d]pyrimidin-5-yl)amino)-N-(methyl-d3)nicotinamide]	0.756 nM	562 nM
CCN1C(=O)Cc2ccc(Nc3cc(NC(=O)C4CC4)ncc3C(=O)NC)c(OC)c21 [Example 205, 6-(Cyclopropanecarboxamido)-4-((1-ethyl-7-methoxy-2-oxoindolin-6-yl)amino)-N-methylnicotinamide]	1.3 nM	252 nM
[2H]C([2H])([2H])NC(=O)c1cnc(NC(=O)C2CC2)cc1Nc1cn(C2CC2)c2ncn(CC)c(=O)c12 [Example 211]	0.71 nM	174 nM
[2H]C([2H])([2H])NC(=O)c1cnc(NC(=O)C2CC2)cc1Nc1cn(CC)c2ncn(CC(F)(F)F)c(=O)c12 [Example 212, 6-(Cyclopropanecarboxamido)-4-((7-ethyl-4-oxo-3-(2,2,2-trifluoroethyl)-4,7-dihydro-3H-pyrrolo[2,3-d]pyrimidin-5-yl)amino)-N-(methyl-d3)nicotinamide]	0.601 nM	244 nM
[2H]C([2H])([2H])NC(=O)c1cnc(NC(=O)C2CC2)cc1Nc1cn(CC(F)(F)F)c2ncn(CC)c(=O)c12 [Example 214, 6-(Cyclopropanecarboxamido)-4-((3-ethyl-4-oxo-7-(2,2,2-trifluoroethyl)-4,7-dihydro-3H-pyrrolo[2,3-d]pyrimidin-5-yl)amino)-N-(methyl-d3)nicotinamide]	0.557 nM	217 nM
[2H]C([2H])([2H])NC(=O)c1cnc(NC(=O)C2CC2)cc1Nc1ccn2ncc(CCC)c2c1OC [Example 215, 6-(Cyclopropanecarboxamido)-4-((4-methoxy-3-propylpyrazolo[1,5-a]pyridin-5-yl)amino)-N-(methyl-d3)nicotinamide]	0.532 nM	159 nM
[2H]C([2H])([2H])NC(=O)c1cnc(NC(=O)C2CC2)cc1Nc1cn(C)c2ncn(C(C)C(F)(F)F)c(=O)c12 (stereo not shown) [Example 217, 6-(Cyclopropanecarboxamido)-N-(methyl-d3)-4-((7-methyl-4-oxo-3-(1,1,1-trifluoropropan-2-yl)-4,7-dihydro-3H-pyrrolo[2,3-d]pyrimidin-5-yl)amino)nicotinamide]	1.31 nM	205 nM
[2H]C([2H])([2H])NC(=O)c1nnc(NC(=O)C2CC2)cc1Nc1nn(CC)c2ccn(CC(F)(F)F)c(=O)c12 [Example 218, 6-(Cyclopropanecarboxamido)-4-((1-ethyl-4-oxo-5-(2,2,2-trifluoroethyl)-4,5-dihydro-1H-pyrazolo[4,3-c]pyridin-3-yl)amino)-N-(methyl-d3)pyridazine-3-carboxamide]	0.343 nM	68.6 nM
[2H]C([2H])([2H])NC(=O)c1cnc(NC(=O)C2CC2)cc1Nc1ccc2cnc(CC)n2c1OC [Example 227, 6-(Cyclopropanecarboxamido)-4-((3-ethyl-5-methoxyimidazo[1,5-a]pyridin-6-yl)amino)-N-(methyl-d3)nicotinamide]	7.53 nM	> 5000 nM
[2H]C([2H])([2H])NC(=O)c1cnc(NC(=O)C2CC2)cc1Nc1ccc2nn(C)c(CC)c2c1OC [Example 232, 6-(Cyclopropanecarboxamido)-4-((3-ethyl-4-methoxy-2-methyl-2H-indazol-5-yl)amino)-N-(methyl-d3)nicotinamide]	1.58 nM	1700 nM
[2H]C([2H])([2H])NC(=O)c1cnc(NC(=O)C2CC2)cc1Nc1cnc2cnn(CC)c2c1OC [Example 265, 6-(Cyclopropanecarboxamido)-4-((1-ethyl-7-methoxy-1H-pyrazolo[4,3-b]pyridin-6-yl)amino)-N-(methyl-d3)nicotinamide]	69.2 nM	> 5000 nM
[2H]C([2H])([2H])NC(=O)c1cnc(NC(=O)C(F)(F)F)cc1Nc1ccc2cnn(CC)c2c1OC [Example 271, 4-((1-Ethyl-7-methoxy-1H-indazol-6-yl)amino)-N-(methyl-d3)-6-(2,2,2-trifluoroacetamido)nicotinamide]	25.6 nM	2610 nM
CCn1ncc2ccc(Nc3cc(NC(=O)C4CC4)ncc3Cl)c(OC)c21 [Example 272, N-(5-chloro-4-((1-ethyl-7-methoxy-1H-indazol-6-yl)amino)pyridin-2-yl)cyclopropanecarboxamide]	138 nM	4760 nM
[2H]C([2H])([2H])NC(=O)c1cnc(NC(=O)C2CC2)cc1Nc1ccc2cnn(CCN(C)C)c2c1OC [Example 274, 6-(Cyclopropanecarboxamido)-4-((1-(2-(dimethylamino)ethyl)-7-methoxy-1H-indazol-6-yl)amino)-N-(methyl-d3)nicotinamide]	34.4 nM	> 5000 nM
[2H]C([2H])([2H])NC(=O)c1cnc(NC(=O)C2CC2)cc1Nc1ncn2ncc(C)c2c1OC [Example 279, 6-(Cyclopropanecarboxamido)-4-((4-methoxy-3-methylpyrazolo[1,5-c]pyrimidin-5-yl)amino)-N-(methyl-d3)nicotinamide]	0.33 nM	70.1 nM
[2H]C([2H])([2H])NC(=O)c1cnc(NC(=O)C2CC2)cc1Nc1ncn2ncc(CC)c2c1OC [Example 280, 6-(Cyclopropanecarboxamido)-4-((3-ethyl-4-methoxypyrazolo[1,5-c]pyrimidin-5-yl)amino)-N-(methyl-d3)nicotinamide]	0.18 nM	40.2 nM

— patent publication US20250115597A1, “TYK2 INHIBITORS AND COMPOSITIONS AND METHODS THEREOF” (LYNK PHARMACEUTICALS CO. LTD., priority 2021, published 2025)
